# In ChEMBL document CHEMBL1135428, “A new type of prodrug of catecholamines: an opportunity to improve the treatment of Parkinson's disease” (2002):
# Calls of active or inactive are those of the source. The rule behind the calls is not given here.
# What was measured:
# [1] = tested on: Rattus norvegicus; assay: Subcutaneously administered dose (in vivo) in male Wistar rats in a striatal microdialysis analysis and its metabolite, 5,6-di-OH-DPAT was found to be present; type: functional
# [2] = tested on: Rattus norvegicus; assay: Dopamine (DA) agonistic activity (% decrease in endogenous dopamine level) after peroral administration at a dose of 1.2 uMl/Kg; type: functional
# [3] = tested on: Rattus norvegicus; assay: Dopamine (DA) agonistic activity (% decrease in endogenous dopamine level) after peroral administration at a dose of 0.4 uM/Kg; type: functional
# [4] = tested on: Rattus norvegicus; assay: Dopamine (DA) agonistic activity (% decrease in endogenous dopamine level) after peroral administration at a dose of 1.2 uM/kg; Inactive; type: functional, organism-based
Structure (SMILES),Dose [1] [µM/kg],Decrease [2] [%],Decrease [3] [%],Decrease [4]
CCCN(CCC)[C@H]1CCC2=C(CCCC2=O)C1,35,70,50,–
CCCN(CCC)[C@@H]1CCC2=C(CCCC2=O)C1,350,–,–,inactive
